Data taken from patent publication US20080003184A1, “Superparamagnetic Gadolinium Oxide Nanoscale Particles and Compositions Comprising Such Particles” (priority 2004, published 2008).
Where two headings read alike, the source gives them in different places.

Tests used:
[1] = Magnevist 0.1 mmol/kg, cited from earlier work
[2] = Signal intensity from first echo of spin echo sequence (TE=30 ms, TR=500 ms); assay type: physicochemical
Method: (§1) Samples of Gd2O3-DEG from Example 1 (with an average particle size of about 5 nm and a particle size range from about 1 to 15 nm) and Gd-DTPA (Magnevist®) were prepared in 10 mm NMR test tubes with H2O at 9 different Gd concentrations from […]. At measurement the test tubes were immersed in a bowl with saline at 22-23° C., which was the temperature of the scanner room.
(§2) T1 and T2 relaxation times were measured with a 1.5 T Philips Achieva whole body scanner using the head coil. A 2D mixed multi-echo SE interleaved with multi-echo IR sequence was used for the measurements [kleef_mrm—1987]. Imaging time parameters were varied to minimise the standard deviations in relaxation time calculations: TE=30 ms, TR (SE)=500 ms, TI=150 ms, and TR (IR)=1150 ms (set 1); TE=50 ms, TR (SE)=760 ms, TI=370 ms, and TR (IR)=2290 ms (set 2). Other MR parameters were: FOV=23 cm, slice thickness=7 mm, number of echoes=4.
At higher concentrations (>0.9 mM) the strong T2 effect attenuated the signal for the nanoparticle samples. That is, the Gd2O3 sample reached the signal intensity peak at lower concentrations (0.6 mM) compared to the Gd-DTPA signal intensity that peaked at approximately 1.2 mM in this sequence.
In addition, samples of Gd2O3-DEG and Resovist® were prepared and tested under the same conditions as above. There were 6 different Gd and Fe concentrations between 0.1 and 1.5 mM. […]

[3] = system: THP-1 cells; test: Monocyte studies: incubation, washing, T1/T2 measurement; assay type: cell-based; details: 0.1-0.9 mM Gd, 2 h or 8 h at 37° C., washed twice
Method: For monocyte experiments, THP-1 cells were cultured in RPMI 1640 medium with 10% fetal calf serum (GIBCO, Invitrogen, Carlsbad, Calif., USA) with additions of L-glutamate and penicillin/streptomycin solution (Invitrogen). Cells were counted and found 97% viable. Cells were treated with Gd2O3-DEG or Gd-DTPA in concentrations 0.1, 0.3, 0.6, and 0.9 mM. Cells of one well were left untreated. A control series was prepared of cell culture medium only with the different concentrations of Gd2O3-DEG particles. Two plates of 24 wells each were prepared as described above; one was incubated with the Gd2O3-DEG and Gd-DTPA for 2 h and the other one for 8 h at 37° C. After incubation cells were transferred to Falcon tubes and washed twice with medium and centrifugated for 8 minutes at 1100 rpm.

[4] = Relaxation time measurements (T1, T2 relaxivity) in H2O, 1.5 T scanner; assay type: physicochemical; details: 22-23° C.
Method: as §1, §2
In addition, samples of Gd2O3-DEG and Resovist® were prepared and tested under the same conditions as above. There were 6 different Gd and Fe concentrations between 0.1 and 1.5 mM. Resovist® is based on ferrocarbotran colloidal sol of superparamagnetic iron oxide nanoparticles (SPIO). The particles have a hydrodynamic diameter of 60 nm on an iron core of 4 nm. […] Accordingly, Gd2O3-DEG particles enable a contrast agent with complementary properties to those based on SPIO.

## O=C([O-])CN(CCN(CC(=O)[O-])CC(=O)O)CCN(CC(=O)[O-])CC(=O)O.[Gd+3] [Gd-DTPA]
[1]; 3 minutes after injection
  detected plasma concentration of Gd: 0.6 mM
[1]; 60 minutes after injection
  detected plasma concentration of Gd: 0.24 mM
[2]
  Gd concentration at signal intensity peak: approximately 1.2 mM
[3]
  Presence with cells after the washing procedure: not present in the cell suspension after the washing
[4]
  r1 relaxivity constant: 4.86 ± 0.08 mM⁻¹ s⁻¹
  r2 relaxivity constant: 5.53 ± 0.14 mM⁻¹ s⁻¹
